Marks after values point to notes of the source that are not given here. Ends that are not written are not given here.
Legend:
HCV genotype-1a = assay: Case report, person with hepatitis C: HCV RNA levels; assay type: in vivo, patient
Experimental: Then it was decided to start PEG Intron at ⅕ mc/kg/w, ribavirin at 12 mg/kg/day and thymosin-alpha-1 at 3.2 mcg BIW SQ, as a second course of treatment.

[1] = system: peripheral CD3 lymphocyte counts; assay: Same study: change in peripheral CD3 lymphocyte counts from baseline (flow cytometry); assay type: in vivo, patients
Experimental: (§1) Patients with chronic hepatitis C who were non-responders to previous antiviral therapy were randomized to receive PEG-IFN2a 180 μg/week plus thymalfasin given twice a week by subcutaneous injection (Group 1, 0.8 mg; Group 2, 1.6 mg; Group 3, 3.2 mg). In order to assess effect of thymalfasin on PEG-IFN2a, patients were included only if they were infected with HCV genotype 1 and had serum HCV RNA levels greater than 2 million copies per ml. The effect of therapy was assessed on the reduction in serum HCV RNA after 12 weeks, early virologic response (EVR, proportion which greater than 2 log reduction or negative HCV RNA by the Roche Amplicor assay) and on changes in peripheral CD3 and CD4 lymphocyte counts from baseline (assessed by flow cytometry).

[2] = system: peripheral CD4 lymphocyte counts; assay: Same study: change in peripheral CD4 lymphocyte counts from baseline (flow cytometry); assay type: in vivo, patients
Experimental: as §1

HCV genotype 1 = assay: 12-week dose ranging study of thymalfasin plus PEG-IFN2a in chronic hepatitis C non-responders: serum HCV RNA, EVR; assay type: in vivo, patients; conditions: for Median Reduction HCV RNA (log): week 12
Experimental: The effects of 3 different doses of thymalfasin (TA1) in combination with PEG-IFN2a on week 12 HCV RNA levels and T cell counts was investigated.
as §1
31 patients (26 male) with median age 47 yrs (range 39–58) were enrolled. Four were non-responders to a previous course of standard IFN alone while 27 had previously non responded to standard IFN with ribavirin. All subjects completed 12 weeks of therapy. Six (19%) became negative for HCV RNA on therapy. […] The median reduction in HCV RNA increased with dose with thymosin (Table B).
Patients were randomized into three groups to receive 180 mcg/week of pegylated interferon alpha-2a plus one of three different bi-weekly doses of TA1.

[3] = in vivo
From the text: Patients will be monitored for significant side-effects or allergic manifestations possibly resulting from treatment. […] Patients will be educated on the symptoms of severe anaphylactic reactions and informed of appropriate countermeasures.

[4] = Group 1: 0.8 mg biw + PEG-IFN2a 180 μg/week
[5] = Group 2: 1.6 mg biw + PEG-IFN2a 180 μg/week
[6] = Group 3: 3.2 mg biw + PEG-IFN2a 180 μg/week

With “thymalfasin: 28 amino acidic polypeptide with a molecular weight of 3100 that has potent immunologic activity; synthetic Tα1 by SciClone (Ac-SDAAVDTSSEITTKDLKEKKEVVEEAEN; UniProt P06454 2-29, looked up)” the “HCV RNA by TMA” value (HCV genotype-1a; 1 and 3 months after stopping 12 months of PEG Intron + ribavirin + thymosin-alpha-1) was “negative”, the “HCV RNA blood levels by TMA” value (HCV genotype-1a; PEG Intron ⅕ mc/kg/w + ribavirin 12 mg/kg/day + thymosin-alpha-1 3.2 mcg BIW SQ, month 1, 3, 6 and 12) was “less than 5 IU/mL” and the “CD3+ change from baseline” value [1, 4] was 0%. The “CD3+ change from baseline” value [1, 5] was “+8.3%”, the “CD3+ change from baseline” value [1, 6] was “+7.5%” and the “CD4+ change from baseline” value [2, 4] was −0.2%. For the same substance, the “CD4+ change from baseline” value [2, 5] was “+14.8%”, the “CD4+ change from baseline” value [2, 6] was “+8.8%” and the “EVR, early virologic response (greater than 2 log reduction or negative HCV RNA)” value (HCV genotype 1; Group 1: 0.8 mg biw + PEG-IFN2a 180 μg/week, 12 weeks, listed as T1) was 20%. For the same substance, the “EVR, early virologic response (greater than 2 log reduction or negative HCV RNA)” value (HCV genotype 1; Group 1: 0.8 mg biw + PEG-IFN2a 180 μg/week, 12 weeks, listed as TA1) was 20%, the “Median Reduction HCV RNA (log)” value (HCV genotype 1; Group 1: T1 0.8 mg biw sc + PEG-IFN2a 180 μg/week, n=10) was 0.57 log and the “EVR, early virologic response (greater than 2 log reduction or negative HCV RNA)” value (HCV genotype 1; Group 2: 1.6 mg biw + PEG-IFN2a 180 μg/week, 12 weeks, listed as T1) was 30%. The “EVR, early virologic response (greater than 2 log reduction or negative HCV RNA)” value (HCV genotype 1; Group 2: 1.6 mg biw + PEG-IFN2a 180 μg/week, 12 weeks, listed as TA1) was 30%, the “Median Reduction HCV RNA (log)” value (HCV genotype 1; Group 2: T1 1.6 mg biw sc + PEG-IFN2a 180 μg/week, n=10, p < 0.01 vs group 1) was 0.97* log and the “EVR, early virologic response (greater than 2 log reduction or negative HCV RNA)” value (HCV genotype 1; Group 3: 3.2 mg biw + PEG-IFN2a 180 μg/week, 12 weeks, listed as T1) was 36%. The “EVR, early virologic response (greater than 2 log reduction or negative HCV RNA)” value (HCV genotype 1; Group 3: 3.2 mg biw + PEG-IFN2a 180 μg/week, 12 weeks, listed as TA1) was 36%, the “Median Reduction HCV RNA (log)” value (HCV genotype 1; Group 3: T1 3.2 mg biw sc + PEG-IFN2a 180 μg/week, n=11, p < 0.005 vs group 1) was 1.09** log and the “Patients who became negative for HCV RNA on therapy” value (HCV genotype 1; all 31 patients, all three dose groups, with PEG-IFN2a, 12 weeks) was 19%. The “local or systemic side effects” value [3] was “no local or systemic side effects have been observed”.

From patent US7208167B2, “Treatment of hepatitis C with thymosin and peptide combination therapy” (SciClone Pharmaceuticals, Inc., priority 2000, dated 2007)
